Measured values taken from US6706664B1, “Benzoxazole compounds, process for the preparation thereof and herbicides” (UBE Industries, Ltd., priority 1999, dated 2004).

What was measured:
Design in all cases: key: 0: normal development; 1: Less damaged; 2: Slightly damaged; 3: Moderately damaged; 4: Severely damaged; 5: All killed
barnyardgrass [1] = experiment: Herbicidal test for paddy field; format: in vivo, Echinochloa crusgalli; details: paddy field pot, 500 g/ha dropwise at 1.5 leaf stage of barnyardgrass, 3 weeks, rank vs non-treated
Procedure, shortened: (§1)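 Post-flooding water application of 500 g/ha, given at 1.5-leaf barnyardgrass, to plants in Ube alluvial soil held under 3 cm of water. Ratings of 0 to 5 relative to untreated controls were made after three weeks in a glasshouse.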

flat sedge = experiment: Herbicidal test for paddy field; format: in vivo, Cyperus serotinus; details: paddy field pot, 500 g/ha dropwise at 1.5 leaf stage of barnyardgrass, 3 weeks, rank vs non-treated
Protocol: Wagner pots, each having an area of 1/5000 are, were packed with Ube soil (alluvial soil) and planted with seeds or tubers of young rice plant, barnyardgrass, bulrush, flat sedge and monochoria. Then, the pots were filled with water to a depth of 3 cm.
Each wettable powder of the desired compounds (I) shown in Table 1 prepared in accordance with Example 2 was diluted with water containing a surfactant (0.05%) and subjected to dropwise addition treatment by using pipet so that an effective concentration of the compound (I) in each herbicide became 500 g/ha at 1.5 leaf stage of barnyardgrass.
These plants were controlled in a glass house at an average temperature of 25° C. for 3 weeks, and then herbicidal effects thereof were investigated.
The herbicidal effects are evaluated according to the following 6 ranks as compared with non-treated district.
(0: normal development, 1: Less damaged, 2: Slightly damaged, 3: Moderately damaged, 4: Severely damaged, 5: All killed).

corn = experiment: Soil treatment test for upland field; format: in vivo; details: 500 g/ha, glass house 25° C., 3 weeks
Procedure, shortened: (§2)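 Seeds planted in Wagner pots of Ube soil (alluvial) and covered. Wettable powder diluted in 0.05% surfactant water, sprayed uniformly onto soil at 500 g/ha effective rate. Grown 3 weeks, glasshouse, mean 25° C, then damage rated visually 0–5.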

cotton [2] = experiment: Soil treatment test for upland field; format: in vivo; details: 500 g/ha, glass house 25° C., 3 weeks
Procedure, shortened: as §2

solgum = experiment: Soil treatment test for upland field; format: in vivo; details: 500 g/ha, glass house 25° C., 3 weeks
Procedure, shortened: as §2

soybean [3] = experiment: Soil treatment test for upland field; format: in vivo; details: 500 g/ha, glass house 25° C., 3 weeks
Procedure, shortened: as §2

sugar beat = experiment: Soil treatment test for upland field; format: in vivo; details: 500 g/ha, glass house 25° C., 3 weeks
Procedure, shortened: as §2

wheat = experiment: Soil treatment test for upland field; format: in vivo; details: 500 g/ha, glass house 25° C., 3 weeks
Procedure, shortened: as §2

barnyardgrass [4] = experiment: Soil treatment test for upland field; format: in vivo, Echinochloa crusgalli; details: 500 g/ha, glass house 25° C., 3 weeks
Procedure, shortened: as §2

common lambsquartes = experiment: Soil treatment test for upland field; format: in vivo, Chenopodium album; details: 500 g/ha, glass house 25° C., 3 weeks
Procedure, shortened: as §2

cotton [5] = experiment: Foliar spread test for upland field; format: in vivo; details: foliar spray 500 ppm, 3 weeks, rank vs non-treated
Procedure, shortened: (§3)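 Crop seeds sown in volcanic ash soil in Wagner pots were raised about 2 weeks in a glasshouse, then sprayed with wettable-powder formulations diluted to 500 ppm in water with 0.5% surfactant. After 3 weeks at an average 25° C., injury was scored 0 (normal) to 5 (all killed).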

soybean [6] = experiment: Foliar spread test for upland field; format: in vivo; details: foliar spray 500 ppm, 3 weeks, rank vs non-treated
Procedure, shortened: as §3

barnyardgrass [7] = experiment: Foliar spread test for upland field; format: in vivo, Echinochloa crusgalli; details: foliar spray 500 ppm, 3 weeks, rank vs non-treated
Procedure, shortened: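 Seeds are planted in pots of volcanic ash soil and grown roughly 2 weeks under glass. Foliage then receives a uniform spray of compound at 500 ppm in water with 0.5% surfactant. Herbicidal damage is rated 0–5 after 3 weeks at an average 25° C.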

bulrush = experiment: Herbicidal test for paddy field; format: in vivo, Scrips juncoides; details: paddy field pot, 500 g/ha dropwise at 1.5 leaf stage of barnyardgrass, 3 weeks, rank vs non-treated
Procedure, shortened: as §1

velvetleaf = experiment: Soil treatment test for upland field; format: in vivo, Abutilon theophrasti; details: 500 g/ha, glass house 25° C., 3 weeks
Procedure, shortened: as §2

Compound | Effect Barnyardgrass (barnyardgrass [1]) | Effect Flat sedge (flat sedge) | Effects Corn (corn) | Effects Cotton (cotton [2]) | Effects Solgum (solgum) | Effects Soybean (soybean [3]) | Effects Sugar beat (sugar beat) | Effects Wheat (wheat) | Effects Barnyardgrass (barnyardgrass [4]) | Effects Common lambsquarters (common lambsquartes) | Effects Cotton (cotton [5]) | Effects Soybean (soybean [6]) | Effects Barnyardgrass (barnyardgrass [7]) | Effect Bulrush (bulrush) | Effects Velvetleaf (velvetleaf)
CCC(Oc1ccc(F)c(C(F)(F)F)c1)c1nc2cc(F)ccc2o1 (centres unmarked) [Compound 119, 1-(5-fluorobenzoxazol-2-yl)-1-(4-fluoro-3-(trifluoromethyl)phenoxy)propane] | 3 | 2 | 0 | 0 | 0 | 0 | 5 | 0 | 5 | 1 | 1 | 2 | 1 |  | 
CCC(Oc1ccc(F)c(C(F)(F)F)c1)c1nc2cc(Cl)ccc2o1 (centres unmarked) [Compound 139] | 5 |  | 2 | 1 | 2 | 1 | 5 | 1 | 3 | 4 | 3 | 5 | 2 | 5 | 5
CCCC(Oc1cccc(C(F)(F)F)c1)c1nc2cc(Cl)ccc2o1 (centres unmarked) [Compound 142, 1-(5-chlorobenzoxazol-2-yl)-1-(3-(trifluoromethyl)phenoxy)butane] | 3 |  | 1 | 0 | 1 | 3 | 5 | 1 | 3 | 5 | 3 | 4 | 2 | 3 | 5
CCC(Oc1cccc(C(F)(F)F)c1)c1nc2cc(Br)ccc2o1 (centres unmarked) [Compound 166] | 3 | 4 | 0 | 0 | 0 | 0 | 5 | 0 | 4 | 2 | 2 | 4 | 1 |  | 
CCCC(Oc1ccc(F)c(C(F)(F)F)c1)c1nc2cc(C(F)(F)F)ccc2o1 (centres unmarked) [Compound 199] | 4 |  | 1 | 2 | 1 | 2 | 5 | 0 | 2 | 5 | 3 | 4 | 2 | 5 | 5
CCCC(Oc1cccc(C(F)(F)F)c1)c1nc2cc(C(F)(F)F)ccc2o1 (centres unmarked) [Compound 200] | 2 |  | 1 | 1 | 1 | 0 | 5 | 1 | 5 | 4 | 3 | 3 | 2 | 2 | 5
CCCC(Oc1cccc(C(F)(F)F)c1)c1nc2cc(C#N)c(C#N)cc2o1 (centres unmarked) [Compound 317] | 3 | 5 | 2 | 0 | 1 | 1 | 5 | 1 | 3 | 5 |  |  |  | 3 | 5
CCC(Oc1cccc(C(F)(F)F)c1)c1nc2cc(Cl)c(C)cc2o1 (centres unmarked) [Compound 339, 1-(5-chloro-6-methylbenzoxazol-2-yl)-1-(3-(trifluoromethyl)phenoxy)propane] | 4 |  | 1 | 0 | 1 | 1 | 4 | 1 | 3 | 4 | 3 | 3 | 2 | 4 | 4
CCC(Oc1cccc(C(F)(F)F)c1)c1nc2cc(F)c(C(F)(F)F)cc2o1 (centres unmarked) [Compound 471] | 5 | 5 |  | 1 | 3 | 2 | 5 | 1 | 5 | 5 |  |  |  | 2 | 5
CCC(Oc1cccc(OC(F)(F)F)c1)c1nc2cc(C#N)c(C#N)cc2o1 (centres unmarked) [Compound 527] | 4 | 3 | 2 | 0 | 1 | 1 | 5 | 1 | 4 | 5 |  |  |  | 3 | 5
CCC(Oc1cccc(C(F)(F)F)c1)c1nc2cc(C#N)c(Cl)cc2o1 (centres unmarked) [Compound 529] | 5 | 4 | 1 |  | 1 | 1 | 5 |  | 5 | 5 |  |  | 3 | 5 | 5
CCCC(Oc1cccc(C(F)(F)F)c1)c1nc2cc(C#N)c(Cl)cc2o1 (centres unmarked) [Compound 532] | 5 | 2 | 1 | 1 | 1 | 1 | 5 | 2 | 5 | 5 |  |  | 2 | 5 | 5
CCCC(Oc1ccc(F)c(C(F)(F)F)c1)c1nc2cc(C#N)c(Cl)cc2o1 (centres unmarked) [Compound 533] | 5 | 2 | 0 | 0 | 0 | 0 | 5 | 1 | 3 | 5 |  |  | 2 |  | 5
